Laboratory results reported in patent US12083084B2, “Method for enhancing energy production and metabolism in cells” (REPLICON HEALTH OY, priority 2013, dated 2024).
Values joined by “and” are separate entries in the source; they are usually repeats but may differ in a detail not shown here. Equal values may be shown once. “Also recorded” adds a separate entry of the source.

Key:
[1] = test system: primary human hepatocytes; test: Cell viability by LDH release (CytoTox-One) in primary human hepatocytes; format: cell-based
Experimental: Primary human hepatocytes were purchased from Celsis In Vitro Technologies (1450 South Rolling Road Baltimore, MD 21227, USA). […] According to the information provided by the Celsis, hepatocytes from each donor should have at least 70% viability and more than 5 million viable cells. The medium for the culture of hepatocytes was provided by Celsis. They were InVitroGRO CP (for plating) medium (Z99029) and InVitroGRO HI (for incubation) medium (Z99009). Antibiotics (Torpedo Antibiotics Mix, Z990007) were also from Celsis. The thaw, plating and culture of cells were carried out according to the instruction provided by the Celsis In Vitro Technologies.
For the measurement of cell viability after treatment of test compound, CytoTox-One Homogeneous Membrane Integrity Assay kit (Promega, G7891) was used. The CytoTox-One Assay is a rapid fluorescent measure of the release of lactate dehydrogenase (LDH) from cells with a damaged membrane. The number of […] cells correlates to the fluorescence intensity determined by a fluorescence plate reader (Hidex Chameleon V multiplate reader, Hidex Oy, Turku, Finland) with excitation 544 nm and emission 590 nm. For the measurement of cellular reactive oxygen species (ROS), DCFDA Cellular ROS Detection Assay Kit from Abcam (ab113851) was used. Reactive oxygen species (ROS) assay kit (ab113851) uses the cell permeant reagent 2′,7′-dichlorofluorescein diacetate (DCFDA), a fluorogenic dye that measures hydroxyl, peroxyl and other ROS activity with the cell. The activity of ROS was measured by a fluorescence plate reader (Hidex) with excitation/emission wavelengths of 485 nm/535 nm.
The culture of primary hepatocytes was carried out based on the instructions provided by Celsis. After thawing, the cells were suspended in InVitroGRO CP medium. Thereafter the viability of cells was determined using the Trypan Blue exclusion method. Then the concentration of cells was adjusted using InVitroGRO CP medium, so about 30000-35000 cells/100 μl/well can be seeded in collagen I coated 96 well plate (BD, 734-0248).
After seeding, the cells were cultured overnight in the cell culture incubator (Sanyo MCO 18) at atmosphere of 95% air, 5% CO2 at 37° C. Thereafter, the culture medium for the cells was changed to InVitroGRO Hi (Hi Medium) containing test compound (D-glyceric acid calcium salt dehydrate) at the concentrations of 0, 0.2, 2 and 20 μg/ml (study 1, Table 1.1.1) and 0, 0.4, 2 and 10 μg/ml (study 2, Table 1.1.2).
After 24 h (in study 1) and 20 h (in studies 2-4) incubation medium was renewed. Second renewal of the incubation medium occurred at 48 h in study 1 and at 40 h in other studies. ROS and LDH were measured after 1.5-2 hours after last change of the medium, i.e. in a situation with moderate metabolic stress.
The measurement of LDH from medium (leaked LDH) and from cell and medium (total LDH) was carried out according to the instruction provided by the Promega (G7891). The plate was incubated at an incubator to achieve a temperature of 22° C. Thereafter, equal volume of CytoTox-ONE Reagent to cell culture medium (100 μl) was added to each well and mix for 30 seconds. Then they were incubated for 10 min at 22° C., and then 50 μl of Stop Solution was added to each well. After gentle mixing, the fluorescence signal was measured at an excitation wavelength of 560 nm and emission wavelength of 590 nm using the Hidex Chameleon V multiplate reader (Hidex Oy, Turku, Finland).
For the total LDH measurement, all the steps are same except a 2 μl of Lysis Solution (per 100 μl original volume) will be added to the each well to lyse the cells before CytoTox-ONE Reagents will be added.
For the LDH and ROS assays, individual values of each measurement were stored and average value of fluorescence signals of various repeats of each treatment at studied time point were calculated and compared. […] Viability (LDH) measurements contained 4-6 repeats depending on the study. […]

[2] = Plasma sample analyses on PYR, ALA, LAC and NO; format: in vivo, human
Experimental: As mentioned above also plasma samples were collected from S1 and S9, at 0 h and 1 h both in 12 h and 4.5 day test, i.e. 16 observations were gathered with either DGAcs or zero control situations. Additionally in statin group (S10 and S11) 2×2 measurements were done. Altogether there were 20 observations and, thus 10 differences between control and DGAcs administration can be calculated. Pyruvate concentrations were measured using Pyruvate Assay Kit from Sigma (MAK071 Sigma). Alanine concentrations were measured using Sigma Alanine Assay Kit (MAK001). Lactate concentrations were measured using Sigma Lactate Assay Kit (MAK064). And finally nitric oxide (NO) concentrations were measured using OxiSelect™ In Vitro Nitric Oxide (Nitrite/Nitrate) Assay Kit from Nordic Biosite Oy.

[3] = average of measurements 1-10, vs zero control
[4] = healthy volunteer group only, S1 and S9

O=C(O)[C@H](O)CO [DGA, D-glyceric acid]
viability compared to 0 dose ([1]; donor alpha, 0.4 DGA dose, Hi Medium+palmitic acid, FIG. 10c): statistically significant decrease in viability; also recorded: decline is statistically significant | hepatocytes viability increased in some cases by ([1]; donor alpha, FIG. 10c): 40-60% | viability of cells increased on average by ([1]; primary human hepatocytes): 5-10% | decline in NO ([2]; healthy individuals): 13% | increase of plasma/blood pyruvate levels ([2]; summary statement, humans, Example 2.3.3): 20-25% and 25%

O.O.O=C([O-])[C@H](O)CO.O=C([O-])[C@H](O)CO.[Ca+2] [DGAcs, D-glyceric acid, calcium salt dehydrate]
viability compared to 0 dose (in words) ([1]; primary human hepatocytes, standard treatment, moderate metabolic stress): modestly increase the viability | increase of plasma pyruvate ([2]; S1 and S9, 1 hour after administering 75 000 mg of glucose): ~20% | decline in NO ([2]; all measurements, vs control): approximately 10% | Average Change of the Concentration, plasma Alanine [2, 3]: 3.5% | Average Change of the Concentration, plasma Nitric Oxide [2, 3]: −9.9% | Average Change of the Concentration, plasma Pyruvate [2, 3]: 25.9% | Average Change of the Concentration, plasma Lactate ([2]; average of measurements, vs zero control): −31.9% | Average Change of the Concentration, plasma Nitric Oxide (BMI < 25) ([2]; average, subjects with BMI < 25, vs zero control): −13.4% | decrease of plasma lactate [2, 4]: ~38% | increase of plasma pyruvate [2, 4]: approximately 25% | decrease of plasma/blood lactate ([2]; summary statement, humans, compared to control, Example 2.3.3): 31.9% and 30%
